The text below walks through data of US4416874A, “Injectable compositions of BBM-928A” (Bristol-Myers Company, priority 1982, dated 1983).

≈ marks a conversion by molar mass, not a printed value. Read-outs that look alike come from different tables or passages of the source.

A short description of data set [1]: Stability of intravenous solutions at pH 11.0 to 11.5 (high performance liquid chromatography). As to conditions: intravenous solution solubilized by trisodium phosphate. In kind it is physicochemical. As for the experimental part: The preferred composition of the present invention employs trisodium orthophosphate as the base for solubilization of BBM-928A. Solutions having concentrations of BBM-928A of from 1 to 5 mg per milliliter are readily prepared when 0.65 parts by weight of trisodium orthophosphate per part by weight of BBM-928A are employed. Such solutions have a pH within the range of 11.0 to 11.5. If an amount of the base is employed which is insufficient to provide a pH value of pH 11.0 the desired level of solubilization of the BBM-928A is not achieved. At pH values in excess of 11.5 decomposition through hydrolysis of the BBM-928A becomes so extensive as to result in loss of utility of the solutions. […] Such solutions should not be kept for longer periods but should be prepared extemporaneously prior to use. […]
The resulting bulk powder is then filled into glass vials at the rate of 16.5 mg. per vial (10 mg. BBM-928A), and the vials sealed by a proper closure to maintain the anhydrous sterile condition. […] Each vial is constituted for intravenous injection with the desired quantity of sterile water for injection in an amount of 2 ml. or more per vial (conc. up to 5 mg/ml. and preferably from 1 to 5 mg/ml. of BBM-928A). […]

The nature of data set [2]: Solubility in solvents and pharmaceutical vehicles. Format: physicochemical. As for the experimental part: Is thus evident that due to the hydrolytic sensitivity and insolubility of BBM-928A that a formidable pharmaceutical formulation problem is presented for the intravenous use thereof.
The disodium salt of BBM-928A has been prepared by dissolving BBM-928A in aqueous sodium hydroxide at pH 10.5, washing with chloroform, and lyophilizing the aqueous solution. Its solubility in water is 0.5 mg/ml. In the dry state disodium BBM-928A gradually decomposes to BBM-928B and BBM-928C at higher temperatures. The following Table exemplifies this:
Limited solubility in the following solvents was observed.
The preferred composition of the present invention employs trisodium orthophosphate as the base for solubilization of BBM-928A. Solutions having concentrations of BBM-928A of from 1 to 5 mg per milliliter are readily prepared when 0.65 parts by weight of trisodium orthophosphate per part by weight of BBM-928A are employed. Such solutions have a pH within the range of 11.0 to 11.5. If an amount of the base is employed which is insufficient to provide a pH value of pH 11.0 the desired level of solubilization of the BBM-928A is not achieved. At pH values in excess of 11.5 decomposition through hydrolysis of the BBM-928A becomes so extensive as to result in loss of utility of the solutions. […] Such solutions should not be kept for longer periods but should be prepared extemporaneously prior to use. Conventional aseptic techniques conforming to the criteria of both good laboratory practices and good manufacturing practices should be employed in preparing the compositions of the present invention.

The conditions of data set [3]: chloroform and methylene chloride; cited from earlier work.

As usually defined, the solubility is how much of the substance goes into solution per volume. In the case of `COc1ccc2nc(C(=O)N[C@@H]3COC(=O)[C@H](C(C)(C)O)N(C)C(=O)CN(C)C(=O)CNC(=O)[C@@H]4[C@@H](OC(C)=O)CC=NN4C(=O)[C@H](NC(=O)c4nc5ccc(OC)cc5cc4O)COC(=O)[C@H](C(C)(C)O)N(C)C(=O)CN(C)C(=O)CNC(=O)[C@@H]4[C@@H](OC(C)=O)CC=NN4C3=O)c(O)cc2c1` [BBM-928A], the “period of sufficient stability for use following preparation” value in data set [1] is “up to 4 hours”. For the same molecule, the solubility is 1000 µg/mL (≈ 701 µM) in data set [2] (Aqueous L-arginine 10%, yellow solution with a slight haze); “about 1 mg/ml” in data set [2] (Ethyl lactate, slight haze); 500 µg/mL (≈ 350 µM) in data set [2] (Ethyl levulinate, standing in contact with the solvent overnight); 1000 µg/mL (≈ 701 µM) in data set [2] (Lactic acid U.S.P.); “readily soluble” in data set [3]. Moreover, the “solubility in 22 commonly employed pharmaceutical vehicles” value in data set [2] (poloxamer polyols, benzyl alcohol, ethanol, fixed oils, propylene glycol, polyethylene glycol 400, urea, povidone, nicotinamide, dextrose solutions etc.) is listed as “virtually insoluble”.
